Several values for one entry are separate records, joined by “and”; a condition that tells them apart may be missing. Equal entries are not always repeated. Where two headings read alike, the source gives them in different places.
Legend:
[1] = Mouse liver microsome stability; details: liver microsomes, second (control) series
[2] = tested on: Human coronavirus alpha (strain: 229E); assay: organism not typed; assay type: cell-based, HCoV-229E; details: Huh-7, read-out: EC50, human coronavirus 229E
in vitro [3] = assay: in vitro
SARS-CoV-2 [4] = assay: cell-based
SARS-CoV-2 [5] = assay: microbe, parasite or virus in culture; assay type: cell-based
SARS-CoV-2 3CL protease [6] = target: T1, SARS-CoV-2 3CL protease (Severe acute respiratory syndrome coronavirus 2, UniProt P0DTD1); assay: biochemical
SARS-CoV-2 [7] = assay: microbe, parasite or virus in culture; assay type: cell-based; details: for EC50: Severe acute respiratory syndrome coronavirus 2, 24 h, read-out: SARS-CoV-2 Huh-7ACE2 EC50
[8] = tested on: Human coronavirus beta (strain: OC43); assay: organism not typed; assay type: cell-based, HCoV-OC43; details: Huh-7, read-out: EC50, human coronavirus OC43
[9] = tested on: Influenza A H1N1 (strain: California/07/2009); assay: microbe, parasite or virus in culture; assay type: cell-based; details: for EC50: Influenza A virus, H1N1, MDCK, read-out: Influenza A (H1N1) MDCK EC50
SARS-CoV-2 [10] = assay: microbe, parasite or virus in culture; details: Severe acute respiratory syndrome coronavirus 2, Caco-2, 72 h, read-out: SARS-CoV-2 Caco-2 EC90
SARS-CoV-2 [11] = assay: microbe, parasite or virus in culture; assay type: cell-based; details: Severe acute respiratory syndrome coronavirus 2, read-out: SARS-CoV-2 EC50
SARS-CoV-2 3CL protease [12] = target: T1, SARS-CoV-2 3CL protease; assay: biochemical; details: for kinact/KI: read-out: SARS-CoV-2 3CLpro kinact/KI
Furin = Furin (Homo sapiens, UniProt P09958); assay: biochemical
Chain of Furin (P09958 108-715): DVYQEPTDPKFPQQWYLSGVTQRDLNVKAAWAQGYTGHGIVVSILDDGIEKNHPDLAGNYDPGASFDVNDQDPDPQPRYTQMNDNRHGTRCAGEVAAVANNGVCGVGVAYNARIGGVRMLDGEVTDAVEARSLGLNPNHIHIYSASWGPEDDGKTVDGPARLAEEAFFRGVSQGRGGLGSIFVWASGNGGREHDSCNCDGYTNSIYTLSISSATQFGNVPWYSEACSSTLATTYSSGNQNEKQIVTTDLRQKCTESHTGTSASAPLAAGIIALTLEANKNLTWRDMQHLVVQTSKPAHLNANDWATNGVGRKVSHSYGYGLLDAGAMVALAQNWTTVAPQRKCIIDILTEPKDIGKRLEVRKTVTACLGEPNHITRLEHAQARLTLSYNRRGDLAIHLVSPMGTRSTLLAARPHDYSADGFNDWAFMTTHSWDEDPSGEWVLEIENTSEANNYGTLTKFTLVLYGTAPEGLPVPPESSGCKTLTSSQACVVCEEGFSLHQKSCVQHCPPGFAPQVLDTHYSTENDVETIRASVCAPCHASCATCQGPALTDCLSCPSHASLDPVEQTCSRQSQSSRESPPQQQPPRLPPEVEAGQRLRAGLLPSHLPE

Cathepsin L = target: T2, Cathepsin L (Homo sapiens, UniProt P07711); assay: Protease selectivity panel: Cathepsin L; assay type: biochemical
T2 construct: Human liver; from tissue; host or cells: human liver
T2 sequence (P07711 114-333): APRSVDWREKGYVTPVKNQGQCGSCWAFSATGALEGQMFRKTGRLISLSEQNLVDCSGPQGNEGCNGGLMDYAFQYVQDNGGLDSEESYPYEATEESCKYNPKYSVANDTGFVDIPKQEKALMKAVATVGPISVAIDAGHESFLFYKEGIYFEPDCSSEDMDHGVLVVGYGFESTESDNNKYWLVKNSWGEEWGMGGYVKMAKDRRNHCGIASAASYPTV

ACE2 = ACE2 (Homo sapiens, UniProt Q9BYF1); assay: biochemical
Chain of ACE2 (Q9BYF1 18-740): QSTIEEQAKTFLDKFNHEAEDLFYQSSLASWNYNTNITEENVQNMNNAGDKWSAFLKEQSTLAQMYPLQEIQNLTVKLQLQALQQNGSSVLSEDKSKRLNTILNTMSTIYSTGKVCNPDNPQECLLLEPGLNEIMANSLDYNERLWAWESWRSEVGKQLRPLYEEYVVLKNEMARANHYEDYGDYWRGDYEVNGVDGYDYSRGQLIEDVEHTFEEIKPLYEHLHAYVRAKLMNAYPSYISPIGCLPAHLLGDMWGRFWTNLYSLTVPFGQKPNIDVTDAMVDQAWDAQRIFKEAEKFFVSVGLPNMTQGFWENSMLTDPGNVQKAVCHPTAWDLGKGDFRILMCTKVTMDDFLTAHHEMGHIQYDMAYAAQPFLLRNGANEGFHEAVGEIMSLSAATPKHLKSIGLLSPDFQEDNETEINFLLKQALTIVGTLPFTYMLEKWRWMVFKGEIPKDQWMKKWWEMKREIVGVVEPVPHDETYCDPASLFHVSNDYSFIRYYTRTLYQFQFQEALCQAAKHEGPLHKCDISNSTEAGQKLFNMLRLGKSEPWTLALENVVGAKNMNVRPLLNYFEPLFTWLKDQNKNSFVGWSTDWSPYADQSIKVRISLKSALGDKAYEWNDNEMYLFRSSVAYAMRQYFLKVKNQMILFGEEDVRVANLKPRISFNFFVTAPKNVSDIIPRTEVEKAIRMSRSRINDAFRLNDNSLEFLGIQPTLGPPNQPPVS

TMPRSS2 = TMPRSS2 (Homo sapiens, UniProt O15393); assay: biochemical
Chain of TMPRSS2 (O15393 106-492): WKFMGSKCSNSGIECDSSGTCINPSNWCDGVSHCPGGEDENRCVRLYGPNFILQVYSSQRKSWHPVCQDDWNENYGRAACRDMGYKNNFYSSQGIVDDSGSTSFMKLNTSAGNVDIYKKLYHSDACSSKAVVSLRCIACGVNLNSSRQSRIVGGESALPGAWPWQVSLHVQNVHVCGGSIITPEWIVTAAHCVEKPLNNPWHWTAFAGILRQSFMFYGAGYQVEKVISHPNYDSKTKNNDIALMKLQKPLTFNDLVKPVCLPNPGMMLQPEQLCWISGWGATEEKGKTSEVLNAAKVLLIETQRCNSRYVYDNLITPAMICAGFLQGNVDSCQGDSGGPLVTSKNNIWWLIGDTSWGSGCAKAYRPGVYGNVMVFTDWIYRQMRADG

Trypsin = Trypsin (Bos taurus, UniProt P00760); assay: Protease selectivity panel: Trypsin; assay type: biochemical; details: Bovine pancreas
Chain of Trypsin (P00760 24-246): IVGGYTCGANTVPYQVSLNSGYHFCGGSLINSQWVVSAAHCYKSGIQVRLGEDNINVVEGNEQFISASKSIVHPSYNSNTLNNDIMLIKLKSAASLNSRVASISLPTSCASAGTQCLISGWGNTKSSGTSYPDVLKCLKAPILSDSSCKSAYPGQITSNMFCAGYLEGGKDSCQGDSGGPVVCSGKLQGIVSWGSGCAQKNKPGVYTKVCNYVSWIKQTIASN

Cathepsin K = Cathepsin K (Homo sapiens, UniProt P43235); assay: Protease selectivity panel: Cathepsin K
Chain of Cathepsin K (P43235 115-329): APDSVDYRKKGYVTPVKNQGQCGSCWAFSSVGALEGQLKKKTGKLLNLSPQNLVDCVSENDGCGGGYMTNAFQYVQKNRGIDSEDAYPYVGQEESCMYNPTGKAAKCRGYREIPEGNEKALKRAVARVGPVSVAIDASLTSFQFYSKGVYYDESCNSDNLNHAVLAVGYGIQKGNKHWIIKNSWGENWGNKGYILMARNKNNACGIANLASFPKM

Caspase 8 = Caspase 8 (Homo sapiens, UniProt Q14790); assay: biochemical
Chain of Caspase 8 (Q14790 217-479): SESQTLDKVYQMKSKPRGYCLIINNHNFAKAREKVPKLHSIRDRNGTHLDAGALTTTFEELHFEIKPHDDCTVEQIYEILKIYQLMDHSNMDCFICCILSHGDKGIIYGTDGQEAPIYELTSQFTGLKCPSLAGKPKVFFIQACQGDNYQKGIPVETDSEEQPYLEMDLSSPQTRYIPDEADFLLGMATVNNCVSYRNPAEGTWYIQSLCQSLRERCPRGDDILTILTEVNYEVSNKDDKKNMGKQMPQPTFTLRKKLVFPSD

Urokinase = Urokinase (Homo sapiens, UniProt P00749); assay: biochemical
Cathepsin B = Cathepsin B (Homo sapiens, UniProt P07858); assay: biochemical
PLpro = PLpro (Severe acute respiratory syndrome coronavirus 2, UniProt P0DTD1); assay: Protease selectivity panel: PLpro; assay type: biochemical; details: SARS-CoV-2 recombinant
[13] = tested on: SARS coronavirus (strain: Urbani); assay: organism not typed; assay type: cell-based, SARS-CoV
ACE1 = ACE1 (Homo sapiens, UniProt P12821); assay: biochemical
Chain of ACE1 (P12821 30-1261): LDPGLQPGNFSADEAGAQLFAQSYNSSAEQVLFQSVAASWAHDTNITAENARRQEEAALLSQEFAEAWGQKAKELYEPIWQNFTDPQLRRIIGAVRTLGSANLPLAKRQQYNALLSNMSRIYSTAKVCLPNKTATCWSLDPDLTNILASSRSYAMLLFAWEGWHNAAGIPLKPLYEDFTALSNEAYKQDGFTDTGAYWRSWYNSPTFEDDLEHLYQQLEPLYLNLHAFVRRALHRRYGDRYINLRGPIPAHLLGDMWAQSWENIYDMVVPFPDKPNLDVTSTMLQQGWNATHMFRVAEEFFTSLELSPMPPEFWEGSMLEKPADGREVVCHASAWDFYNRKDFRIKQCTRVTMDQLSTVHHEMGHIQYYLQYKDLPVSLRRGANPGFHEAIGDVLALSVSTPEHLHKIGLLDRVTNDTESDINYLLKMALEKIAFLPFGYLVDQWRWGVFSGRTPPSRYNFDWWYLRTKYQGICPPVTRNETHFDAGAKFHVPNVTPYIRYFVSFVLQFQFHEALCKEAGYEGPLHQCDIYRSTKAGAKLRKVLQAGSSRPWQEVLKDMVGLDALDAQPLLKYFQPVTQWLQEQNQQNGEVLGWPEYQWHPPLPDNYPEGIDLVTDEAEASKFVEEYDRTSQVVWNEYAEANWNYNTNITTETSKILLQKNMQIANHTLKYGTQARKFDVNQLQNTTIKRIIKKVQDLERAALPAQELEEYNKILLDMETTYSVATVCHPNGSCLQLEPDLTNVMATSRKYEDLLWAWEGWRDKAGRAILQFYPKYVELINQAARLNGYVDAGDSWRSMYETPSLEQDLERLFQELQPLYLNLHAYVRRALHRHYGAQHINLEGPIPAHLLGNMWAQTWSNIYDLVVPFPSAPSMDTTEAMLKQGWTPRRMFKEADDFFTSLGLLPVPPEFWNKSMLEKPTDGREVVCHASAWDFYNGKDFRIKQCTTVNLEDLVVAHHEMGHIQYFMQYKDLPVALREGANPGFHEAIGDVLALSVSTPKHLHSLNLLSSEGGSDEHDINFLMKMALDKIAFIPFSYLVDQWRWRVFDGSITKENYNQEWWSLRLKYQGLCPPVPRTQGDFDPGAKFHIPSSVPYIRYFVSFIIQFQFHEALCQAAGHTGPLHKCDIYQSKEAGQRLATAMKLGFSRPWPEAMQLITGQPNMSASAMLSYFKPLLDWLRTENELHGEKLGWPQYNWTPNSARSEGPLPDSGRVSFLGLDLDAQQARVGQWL

Factor Xa = Factor Xa (Homo sapiens, UniProt P00742); assay: biochemical
Chain of Factor Xa (P00742 235-488): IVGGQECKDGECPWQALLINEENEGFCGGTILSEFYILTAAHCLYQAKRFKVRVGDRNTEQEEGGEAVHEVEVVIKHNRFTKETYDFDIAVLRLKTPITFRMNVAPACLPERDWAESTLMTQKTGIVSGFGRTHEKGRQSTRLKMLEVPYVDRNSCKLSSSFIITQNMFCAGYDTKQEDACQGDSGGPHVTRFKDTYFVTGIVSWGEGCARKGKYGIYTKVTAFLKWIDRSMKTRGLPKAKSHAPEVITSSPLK
Chain of Factor Xa (P00742 41-179): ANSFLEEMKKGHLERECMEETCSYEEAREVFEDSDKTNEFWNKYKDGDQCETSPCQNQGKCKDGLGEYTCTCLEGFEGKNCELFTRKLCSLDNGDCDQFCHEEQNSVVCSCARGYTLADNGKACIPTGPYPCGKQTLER

Thrombin a = Thrombin a (Homo sapiens, UniProt P00734); assay: biochemical
Elastase = Elastase (Homo sapiens, UniProt P08246); assay: biochemical
Chain of Elastase (P08246 30-267): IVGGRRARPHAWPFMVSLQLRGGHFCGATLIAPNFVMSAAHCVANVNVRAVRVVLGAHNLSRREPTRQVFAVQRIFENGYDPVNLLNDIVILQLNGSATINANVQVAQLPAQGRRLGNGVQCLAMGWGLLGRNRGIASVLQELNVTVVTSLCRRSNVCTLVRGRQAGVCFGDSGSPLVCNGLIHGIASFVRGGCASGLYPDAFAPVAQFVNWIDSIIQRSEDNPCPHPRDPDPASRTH

MMP 1 = MMP 1 (Homo sapiens, UniProt P03956); assay: biochemical
Chain of MMP 1 (P03956 100-268): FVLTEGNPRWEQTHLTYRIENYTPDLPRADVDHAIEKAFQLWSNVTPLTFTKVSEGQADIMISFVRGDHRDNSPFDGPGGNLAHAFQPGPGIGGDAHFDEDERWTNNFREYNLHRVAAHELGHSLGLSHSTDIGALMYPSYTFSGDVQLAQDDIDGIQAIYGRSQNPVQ

Cathepsin S = Cathepsin S (Homo sapiens, UniProt P25774); assay: Protease selectivity panel: Cathepsin S
Chain of Cathepsin S (P25774 115-331): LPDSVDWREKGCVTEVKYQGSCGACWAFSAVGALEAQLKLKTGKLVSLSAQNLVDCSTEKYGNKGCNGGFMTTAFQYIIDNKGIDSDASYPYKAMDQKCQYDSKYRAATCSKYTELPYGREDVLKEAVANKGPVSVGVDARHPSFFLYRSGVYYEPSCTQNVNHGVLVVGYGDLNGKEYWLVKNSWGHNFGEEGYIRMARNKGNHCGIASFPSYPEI

SARS-CoV-2 [14] = details: read-out: SARS-CoV-2 antiviral EC50; cited from earlier work
SARS-CoV-2 3CL protease [15] = target: T1, SARS-CoV-2 3CL protease; assay type: binding
human chymotrypsin = assay: Chymotrypsin activity assay (Panc-1 cell lysate); assay type: biochemical
SARS-CoV-2 3CL protease [16] = target: T1, SARS-CoV-2 3CL protease; assay type: binding; remark: listed apart in the source
in vitro [17] = details: human, microsomes, pH 7.4
in vitro [18] = details: CD-1, mouse, microsomes, pH 7.4
in vitro [19] = details: CD-1, mouse, plasma
in vitro [20] = details: human, plasma
[21] = Severe acute respiratory syndrome coronavirus 2, Vero C1008, read-out: SARS-CoV-2 Vero E6 EC50
[22] = 20 nM protease, read-out: SARS-CoV-2 3CLpro IC50
[23] = Concentration of inhibitor (nM) 0.19382
[24] = Concentration of inhibitor (nM) 0.49485
[25] = Concentration of inhibitor (nM) 0.79588
[26] = Concentration of inhibitor (nM) 1.09691
[27] = Concentration of inhibitor (nM) 1.39794
[28] = Concentration of inhibitor (nM) 1.69897
[29] = Concentration of inhibitor (nM) 2.30103
[30] = Concentration of inhibitor (nM) 2.60206
[31] = Concentration of inhibitor (nM) -0.10721
[32] = Concentration of inhibitor (nM) -0.40824

## CCOc1ccc2ccc(=O)oc2c1 [7-ethoxycoumarin]
[1]; Time T0 min
  percent remaining (Figure S11f): 100
[1]; Time T40 min
  percent remaining (Figure S11f): 93.3574 and 91.0789
[1]; Time T80 min
  percent remaining (Figure S11f): 86.8345 and 92.3642

## CC(C)C[C@H](NC(=O)OCc1cccc(Cl)c1)C(=O)N[C@@H](C[C@@H]1CCNC1=O)C(O)S(=O)(=O)O (stereo partly shown) [EB46]
[2]
  EC50: < 100 nM
In vitro [3]
  CC50: > 100000 nM
SARS-CoV-2 [4]
  EC50: 1100 nM
SARS-CoV-2 [5]; [21]
  EC50: 2000 nM
SARS-CoV-2 3CL protease [6]; [22]
  IC50: 23 nM
SARS-CoV-2 3CL protease [6]; [23]
  normalized activity, dose-response curve (Figure S16): 94.5875 and 99.4983
SARS-CoV-2 3CL protease [6]; [24]
  normalized activity, dose-response curve (Figure S16): 85.636 and 94.5724
SARS-CoV-2 3CL protease [6]; [25]
  normalized activity, dose-response curve (Figure S16): 82.4718 and 89.5097
SARS-CoV-2 3CL protease [6]; [26]
  normalized activity, dose-response curve (Figure S16): 66.6922 and 69.8061
SARS-CoV-2 3CL protease [6]; [27]
  normalized activity, dose-response curve (Figure S16): 43.7931 and 49.1904
SARS-CoV-2 3CL protease [6]; [28]
  normalized activity, dose-response curve (Figure S16): 26.3066 and 19.407
SARS-CoV-2 3CL protease [6]; Concentration of inhibitor (nM) 2
  normalized activity, dose-response curve (Figure S16): 3.283 and 4.675
SARS-CoV-2 3CL protease [6]; [29]
  normalized activity, dose-response curve (Figure S16): 2.2 and 3.398
SARS-CoV-2 3CL protease [6]; [30]
  normalized activity, dose-response curve (Figure S16): 0.4514 and 0.7525
SARS-CoV-2 3CL protease [6]; [31]
  normalized activity, dose-response curve (Figure S16): 95.5867 and 98.0844
SARS-CoV-2 3CL protease [6]; [32]
  normalized activity, dose-response curve (Figure S16): 100
SARS-CoV-2 [7]
  inhibition of SARS-CoV-2 (Figure s17b dose-response, replicate values): 95.1515 and 86.8894 and 89.9129 and 91.3208 and 86.4116 and 95.1857 and 65.8333 and 65.5396 and 57.9806 and 19.6057 and 31.892 and 43.1913 and 11.28 and 11.1506 and 22.0558 and -4.012 and 10.0819 and 19.0531 and -4.489 and -1.7527 and 16.6924
  EC50: 14 nM
[8]
  EC50: < 100 nM
[9]
  effect on replication of Influenza H1N1 (in words): no effect was observed
  EC50: > 100000 nM
SARS-CoV-2 [10]
  EC90: 53 nM
SARS-CoV-2 [11]
  EC50: 47 nM
SARS-CoV-2 3CL protease [12]
  observed inactivation rate vs compound concentration (Figure S19, replicate values): 0.066 and 0.0593 and 0.077 and 0.0911 and 0.0219 and 0.0804 and 0.0309 and 0.0674 and 0.0293 and 0.0341 and 0.0137 and 0.0021 and 0.0076 and 0.0213 and 0.0308 and 0.0151 and 0.0444 and 0.0119
  kinact/KI: 55000 M⁻¹ s⁻¹

## CC(C)C[C@H](NC(=O)OCc1ccccc1Cl)C(=O)N[C@@H](C[C@@H]1CCNC1=O)C(O)S(=O)(=O)O (stereo partly shown) [EB54]
Furin
  IC50: > 100000 nM
[2]
  EC50: < 100 nM
In vitro [3]
  CC50: > 100000 nM
Cathepsin L; Human liver, substrate 1 (Z-FR-AMC), […] Cathepsin L, read-out: IC50
  IC50: 1 nM
Cathepsin L; Human liver, substrate 2 (MCA-PLGL-Dap(Dnp)-AR-NH2), 0.5 nM Cathepsin L, read-out: IC50
  IC50: 6 nM
Cathepsin L; read-out: IC50 on human cathepsin L
  IC50: 1 nM
ACE2
  IC50: > 100000 nM
TMPRSS2
  IC50: > 100000 nM
Trypsin
  IC50: > 100000 nM
Cathepsin K
  IC50: 20 nM
Caspase 8
  IC50: 52000 nM
Urokinase
  IC50: > 100000 nM
SARS-CoV-2 [4]
  EC50: 1200 nM
SARS-CoV-2 [5]; [21]
  EC50: 2000 nM
SARS-CoV-2 3CL protease [6]; [22]
  IC50: 29 nM
SARS-CoV-2 3CL protease [6]; [23]
  normalized activity, dose-response curve (Figure S16): 97.3415 and 94.0287
SARS-CoV-2 3CL protease [6]; [24]
  normalized activity, dose-response curve (Figure S16): 94.642 and 94.4552
SARS-CoV-2 3CL protease [6]; [25]
  normalized activity, dose-response curve (Figure S16): 92.0244 and 86.0411
SARS-CoV-2 3CL protease [6]; [26]
  normalized activity, dose-response curve (Figure S16): 76.1141 and 67.8169
SARS-CoV-2 3CL protease [6]; [27]
  normalized activity, dose-response curve (Figure S16): 59.5493 and 51.609
SARS-CoV-2 3CL protease [6]; [28]
  normalized activity, dose-response curve (Figure S16): 35.2953 and 26.9095
SARS-CoV-2 3CL protease [6]; [29]
  normalized activity, dose-response curve (Figure S16): 1.552 and 1.745
SARS-CoV-2 3CL protease [6]; [30]
  normalized activity, dose-response curve (Figure S16): 1.143 and 0.9691
SARS-CoV-2 3CL protease [6]; [31]
  normalized activity, dose-response curve (Figure S16): 100.286 and 100.194
SARS-CoV-2 3CL protease [6]; [32]
  normalized activity, dose-response curve (Figure S16): 100
Cathepsin B
  IC50: 350 nM
SARS-CoV-2 [7]
  inhibition of SARS-CoV-2 (Figure s17b dose-response, replicate values): 99.8698 and 98.0961 and 101.644 and 87.6327 and 101.522 and 73.7431 and 78.1084 and 77.7143 and 78.5024 and 57.3714 and 60.2928 and 54.45 and 31.9222 and 32.9312 and 30.9133 and 24.3408 and 28.9565 and 19.7251 and 10.4228 and 9.535 and 11.3102
  EC50: 5 nM
[8]
  EC50: < 100 nM
PLpro
  IC50: > 100000 nM
[9]
  effect on replication of Influenza H1N1 (in words): no effect was observed
  EC50: > 100000 nM
SARS-CoV-2 [10]
  EC90: 190 nM
[13]; Vero 76, read-out: SARS-CoV Vero 76 EC50
  EC50: < 3000 nM
[13]; read-out: SARS-CoV Vero 76 EC50
  EC50: 2400 nM
ACE1
  IC50: > 100000 nM
SARS-CoV-2 [11]
  EC50: 28 nM
Factor Xa
  IC50: > 100000 nM
Thrombin a
  IC50: > 100000 nM
SARS-CoV-2 3CL protease [12]
  observed inactivation rate vs compound concentration (Figure S19, replicate values): 0.0534 and -0.00333 and 0.0463 and 0.0575 and 0.0117 and 0.0408 and 0.0199 and 0.0198 and 0.0352 and 0.0468 and 0.0351 and 0.0076
  kinact/KI: 88300 M⁻¹ s⁻¹
Elastase
  IC50: > 100000 nM
MMP 1
  IC50: > 100000 nM
Cathepsin S
  IC50: 6 nM

## CC(C)(C)[C@H](NC(=O)C(F)(F)F)C(=O)N1C[C@H]2[C@@H]([C@H]1C(=O)N[C@H](C#N)C[C@@H]1CCNC1=O)C2(C)C [PF-07321332]
SARS-CoV-2 [14]
  EC50: 78 nM

## CCOC(=O)C=CC(CC1CCNC1=O)NC(=O)C(CC(C)C)NC(=O)C(NC(=O)OCc1ccccc1)C(C)OC(C)(C)C (stereo not shown) [compound 4]
other
  concentration above which precipitates formed: above 100 µM
SARS-CoV-2 3CL protease [15]
  binding to 3CL protease by mass spectrometry (in words): one-to-one complex
Human chymotrypsin
  Normalized chymotrypsin activity: 0.9372 and 0.8587 and 0.9322
SARS-CoV-2 [5]; Severe acute respiratory syndrome coronavirus 2, Vero C1008, 72 h, read-out: EC50, inhibition of SARS-CoV-2 viral replication
  EC50: 800 nM
SARS-CoV-2 3CL protease [6]
  Normalized SARS-CoV-2 3CL protease activity: 0.006645 and 0.009809 and 0.01123
SARS-CoV-2 3CL protease [6]; IC50
  IC50: 123 nM
SARS-CoV-2 3CL protease [16]
  binding stoichiometry: 0.97 ± 0.06
In vitro [17]
  half-life: 19 min
In vitro [18]
  half-life: 7.3 min
In vitro [19]
  half-life: 10 min
In vitro [20]
  half-life: > 240 min

## PF-00835231
SARS-CoV-2 [14]
  EC50: 221 nM
